Assay results from patent publication US20250171437A1 (Agios Pharmaceuticals,Inc., priority 2022, published 2025).

Target: T1, human PAH with the R408W mutation (A375 R408W cells) (Homo sapiens, UniProt P00439, R408W)
T1 construct: expressed in transfected cells
T1 sequence (P00439 1-452 R408W): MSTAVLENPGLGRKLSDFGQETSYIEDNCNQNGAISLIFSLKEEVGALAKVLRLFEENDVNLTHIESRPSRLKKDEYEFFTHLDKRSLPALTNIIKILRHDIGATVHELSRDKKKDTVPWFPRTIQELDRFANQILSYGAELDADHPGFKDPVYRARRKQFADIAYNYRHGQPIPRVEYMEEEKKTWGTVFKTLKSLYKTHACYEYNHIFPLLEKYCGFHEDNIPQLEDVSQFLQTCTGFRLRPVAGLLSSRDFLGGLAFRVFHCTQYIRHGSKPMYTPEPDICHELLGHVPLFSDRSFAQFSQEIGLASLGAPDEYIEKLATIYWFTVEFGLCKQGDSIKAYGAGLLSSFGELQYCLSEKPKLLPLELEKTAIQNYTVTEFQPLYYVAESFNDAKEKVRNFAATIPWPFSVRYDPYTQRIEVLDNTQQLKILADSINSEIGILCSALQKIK
Experiment: Cell Based Phenylalanine Flux Assay
Settings: A375 R408W cells; 24 hrs with compound, then 20 μM sepiapterin and 800 μM 13C9,15N-Phenylalanine for 4 hours; 13C-Tyrosine by LC-MS; average where tested multiple times
How it was run: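 Puromycin-selected A375 line, lentiviral hPAH R408W; cmpd 24 h, 37 °C, 5% CO2, 0.5% DMSO; then 20 μM sepiapterin + 800 μM 13C9,15N-Phe, 4 h; media extracted in 80% MeCN; 13C-Tyr by LC-MS; AC50 from 10-pt curves.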

Structure (SMILES) | AC50
O=C(c1ocnc1C(F)F)N1CC2(CC2)c2[nH]cnc2[C@@H]1c1nc2cccc(F)c2o1 [Example 912, (R)-(4-(difluoromethyl)oxazol-5-yl)(4′-(7-fluorobenzo[d]oxazol-2-yl)spiro[cyclopropane-1,7′-imidazo[4,5-c]pyridin]-5′(1′H,4′H,6′H)-yl)methanone] | 0.5 to 1 µM
O=C(c1c(C(F)(F)F)nn2ccccc12)N1CCc2[nH]cnc2[C@H]1c1nc2cc(F)ccc2o1 [Example 915, (S)-(4-(5-fluorobenzo[d]oxazol-2-yl)-6,7-dihydro-1H-imidazo[4,5-c]pyridin-5(4H)-yl)(2-(trifluoromethyl)pyrazolo[1,5-a]pyridin-3-yl)methanone] | ≤ 0.5 µM
Cc1cccc2nc([C@@H]3c4nc[nH]c4CCN3C(=O)c3ccnn3C(F)F)oc12 [Example 919, (S)-(1-(difluoromethyl)-1H-pyrazol-5-yl)(4-(7-methylbenzo[d]oxazol-2-yl)-6,7-dihydro-1H-imidazo[4,5-c]pyridin-5(4H)-yl)methanone] | ≤ 0.5 µM
O=C(c1ocnc1C(F)F)N1Cc2[nH]cnc2[C@H]1c1nc2ccccc2o1 [Example 921, (S)-(4-(benzo[d]oxazol-2-yl)-4,6-dihydropyrrolo[3,4-d]imidazol-5(1H)-yl)(4-(difluoromethyl)oxazol-5-yl)methanone] | 1 to 5 µM
O=C(c1cnn2ccccc12)N1Cc2[nH]cnc2[C@H]1c1nc2ccccc2o1 [Example 929, (S)-(4-(benzo[d]oxazol-2-yl)-4,6-dihydropyrrolo[3,4-d]imidazol-5(1H)-yl)(pyrazolo[1,5-a]pyridin-3-yl)methanone] | 1 to 5 µM
Cn1cc(-c2nnc(C(=O)N3Cc4[nH]cnc4[C@H]3c3nc4ccccc4o3)o2)cn1 [Example 935, (S)-(4-(benzo[d]oxazol-2-yl)-4,6-dihydropyrrolo[3,4-d]imidazol-5(1H)-yl)(5-(1-methyl-1H-pyrazol-4-yl)-1,3,4-oxadiazol-2-yl)methanone] | ≥ 5 µM
O=C(c1nnc(-c2ccccn2)o1)N1Cc2[nH]cnc2[C@H]1c1nc2ccccc2o1 [Example 937, (S)-(4-(benzo[d]oxazol-2-yl)-4,6-dihydropyrrolo[3,4-d]imidazol-5(1H)-yl)(5-(pyridin-2-yl)-1,3,4-oxadiazol-2-yl)methanone] | 1 to 5 µM
O=C(c1nnc(-c2ccccn2)o1)N1Cc2[nH]cnc2[C@@H]1c1nc2ccccc2o1 [Example 938, (R)-(4-(benzo[d]oxazol-2-yl)-4,6-dihydropyrrolo[3,4-d]imidazol-5(1H)-yl)(5-(pyridin-2-yl)-1,3,4-oxadiazol-2-yl)methanone] | 1 to 5 µM

Second part, the compound after the results:

AC50 | Structure (SMILES)
0.5 to 1 µM | O=C(CCc1nccs1)N1CCc2[nH]cnc2[C@H]1c1nc2ccccc2o1 [Example 913, (S)-1-(4-(benzo[d]oxazol-2-yl)-6,7-dihydro-1H-imidazo[4,5-c]pyridin-5(4H)-yl)-3-(thiazol-2-yl)propan-1-one]
1 to 5 µM | O=C(N1CCc2[nH]cnc2[C@H]1c1nc2cc(F)ccc2o1)C1(c2cnco2)CC1 [Example 917, (S)-(4-(5-fluorobenzo[d]oxazol-2-yl)-6,7-dihydro-1H-imidazo[4,5-c]pyridin-5(4H)-yl)(1-(oxazol-5-yl)cyclopropyl)methanone]
1 to 5 µM | O=C(c1ocnc1C(F)F)N1Cc2[nH]cnc2[C@@H]1c1nc2ccccc2o1 [Example 922, (R)-(4-(benzo[d]oxazol-2-yl)-4,6-dihydropyrrolo[3,4-d]imidazol-5(1H)-yl)(4-(difluoromethyl)oxazol-5-yl)methanone]
1 to 5 µM | Cn1nccc1C(=O)N1Cc2[nH]cnc2[C@H]1c1nc2ccccc2o1 [Example 924, (S)-(4-(benzo[d]oxazol-2-yl)-4,6-dihydropyrrolo[3,4-d]imidazol-5(1H)-yl)(1-methyl-1H-pyrazol-5-yl)methanone]
≥ 5 µM | O=C(c1cccnc1)N1Cc2[nH]cnc2[C@H]1c1nc2ccccc2o1 [Example 927, (S)-(4-(benzo[d]oxazol-2-yl)-4,6-dihydropyrrolo[3,4-d]imidazol-5(1H)-yl)(pyridin-3-yl)methanone]
